Assay results: patent US11013235B2 (priority 2015, dated 2021)
Where two headings read alike, the source gives them in different places.

Experiments:
Format in all cases: in vivo
Botrytis cinerea [1] = test: Control of Botrytis cinerea disease in tomato (Bc-SI); conditions: 1 μM spraying every 24 hours for one week, water control 7.4
Method: (§1) In order to compare the effect of the compounds of formula I to V on the control of diseases in different plants, experiments were conducted in tobacco, tomato and Arabidopsis thaliana plants inoculated with Phytophthora parasitica, Rhizoctonia solani, Alternaria solani, Nocardia sp and Botrytis cinerea, respectively. The compounds were applied by spraying, at a concentration of 1 μM, every 24 hours for one week. The plant mortality rate was determined for the disease produced by Phytophthora parasitica, Rhizoctonia solani and Nocardia sp, while the percentage of leaves with symptoms was determined for the infection by Alternaria solani. In the case of plants affected by Botrytis cinerea, the lesion diameter was measured. […] Each treatment included fifty plants. As control, plants treated with water were studied. The plants of each treatment were previously inoculated with the indicated pathogens, according to different inoculation protocols (Frontiers in Plant Science 3: 268, 1-6, 2012), and later they were treated with the compounds.

Radopholus similis = test: Nematode control, nodules per plant: Radopholus similis; conditions: 1 μM foliar application every 5 days, evaluation 35 days after, control 45
Method: (§2) The solutions of the compounds were prepared in ethanol and diluted in water, up to a concentration of 1 μM for a foliar application. Applications were conducted every 5 days, spraying only the leafs with each compound. Ten plants were used for each treatment and the final evaluation was performed 35 days after, by quantifying the number of nodules per plant.

Phytophthora parasitica = test: Control of Phytophthora parasitica disease in tobacco (Pp-Nt); conditions: 1 μM spraying every 24 hours for one week, water control 91
Method: as §1

Alternaria solani = test: Control of Alternaria solani disease in tomato (As-SI); conditions: 1 μM spraying every 24 hours for one week, water control 68
Method: as §1

[2] = system: Candidatus 'Liberibacter asiaticus'; conditions: spraying every 15 days, 12 months after treatment, Citrus sinensis with HLB
Rhizoctonia solani [3] = test: Control of Rhizoctonia solani disease in tomato (Rs-SI); conditions: 1 μM spraying every 24 hours for one week, water control 96
Method: as §1

Botrytis cinerea [4] = test: Control of Botrytis cinerea disease in tobacco (Bc-Nt); conditions: 1 μM spraying every 24 hours for one week, water control 6.7
Method: as §1

Rhizoctonia solani [5] = test: Control of Rhizoctonia solani disease in tobacco (Rs-Nt); conditions: 1 μM spraying every 24 hours for one week, water control 87
Method: as §1

Pratylenchus coffeae = test: Nematode control, nodules per plant: Pratylenchus coffeae; conditions: 1 μM foliar application every 5 days, evaluation 35 days after, control 42
Method: as §2

Nocardia sp = test: Control of Nocardia sp disease in tobacco (N-Nt); conditions: 1 μM spraying every 24 hours for one week, water control 58
Method: as §1

Botrytis cinerea [6] = test: Control of Botrytis cinerea disease in Arabidopsis (Bc-At); conditions: 1 μM spraying every 24 hours for one week, water control 8.7
Method: as §1

Meloidogyne incognita = test: Nematode control, nodules per plant: Meloidogyne incognita; conditions: 1 μM foliar application every 5 days, evaluation 35 days after, control 34
Method: as §2

| SMILES | Bc-SI: mean of the diameter of the lesion (Botrytis cinerea [1]) [mm] | Rs: number of nodules per plant (Radopholus similis) | Pp-Nt: percentage of mortality (Phytophthora parasitica) [%] | As-SI: percentage of leaves with the disease symptoms (Alternaria solani) [%] | Titers of the bacterium ([2]; 0.001 μM) [copies per reaction] | Titers of the bacterium ([2]; 0.01 μM) [copies per reaction] | Titers of the bacterium ([2]; 1 μM) [copies per reaction] | Titers of the bacterium ([2]; 5 μM) [copies per reaction] | Titers of the bacterium ([2]; 10 μM) [copies per reaction] | Rs-SI: percentage of mortality (Rhizoctonia solani [3]) [%] | Bc-Nt: mean of the diameter of the lesion (Botrytis cinerea [4]) [mm] | Rs-Nt: percentage of mortality (Rhizoctonia solani [5]) [%] | Pc: number of nodules per plant (Pratylenchus coffeae) | N-Nt: percentage of mortality (Nocardia sp) [%] | Bc-At: mean of the diameter of the lesion (Botrytis cinerea [6]) [mm] | Mi: number of nodules per plant (Meloidogyne incognita) |
| --- | --- | --- | --- | --- | --- | --- | --- | --- | --- | --- | --- | --- | --- | --- | --- | --- |
| Cc1coc2cc3oc(=O)c(CCC(=O)NCC(O)CO)cc3cc12 (stereo not shown) [IA, N-(2,3-dihydroxypropyl)-3-{6-methyl-2-oxo-2H-furo[3,2-g]chromen-3-yl}propanamide] | 0.8 | 12 | 1 | 1 | 524 | 12 | 0 | 52 | 9652 | 3 | 0.3 | 2 | 18 | 1 | 1.2 | 23 |
| O=C(CCc1cc2cc3c(C4CCCCC4)coc3cc2oc1=O)NCC(O)CO (stereo not shown) [IC, 3-{6-cyclohexyl-2-oxo-2H-furo[3,2-g]chromen-3-yl}-N-(2,3-dihydroxypropyl)propanamide] | 0.8 | 13 | 1 | 3 | 432 | 9 | 0 | 43 | 9632 | 2 | 0.9 | 4 | 22 | 2 | 0.5 | 4 |
| O=C(CCc1cc2cc3c(C4CCCC4)coc3cc2oc1=O)NCC(O)CO (stereo not shown) [ID, 3-{6-cyclopentyl-2-oxo-2H-furo[3,2-g]chromen-3-yl}-N-(2,3-dihydroxypropyl)propanamide] | 2.5 | 0 | 0 | 8 | 123 | 0 | 0 | 123 | 5489 | 2 | 1.5 | 0 | 11 | 1 | 1.5 | 0 |
| O=C(CCc1cc2cc3c(-c4ccc5ccccc5c4)coc3cc2oc1=O)NCC(O)CO (stereo not shown) [IE, N-(2,3-dihydroxypropyl)-3-[6-(naphthalen-2-yl)-2-oxo-2H-furo[3,2-g]chromen-3-yl]propanamide] | 0.8 | 0 | 0 | 7 | 587 | 0 | 0 | 87 | 6574 | 0 | 1.5 | 0 | 0 | 0 | 2.4 | 0 |
| O=C(CCc1cc2cc3ccoc3cc2oc1=O)NCC(O)CO (stereo not shown) [IF, N-(2,3-dihydroxypropyl)-3-{2-oxo-2H-furo[3,2-g]chromen-3-yl}propanamide] | 1.2 | 0 | 0 | 5 | 985 | 0 | 0 | 98 | 6325 | 1 | 0.9 | 0 | 0 | 0 | 0.7 | 0 |
| O=C(CCc1cc2cc3c(-n4cccc4)coc3cc2oc1=O)NCC(O)CO (stereo not shown) [IG, N-(2,3-dihydroxypropyl)-3-[2-oxo-6-(1H-pyrrol-1-yl)-2H-furo[3,2-g]chromen-3-yl]propanamide] | 0.8 | 31 | 3 | 7 | 657 | 11 | 1 | 65 | 5423 | 1 | 0.3 | 0 | 0 | 0 | 1.2 | 0 |
| Cc1coc2cc3oc(=O)c(CCC(=O)NCC(O)CO)c(C)c3cc12 (stereo not shown) [IH, N-(2,3-dihydroxypropyl)-3-{4,6-dimethyl-2-oxo-2H-furo[3,2-g]chromen-3-yl}propanamide] | 1.6 | 19 | 1 | 1 | 658 | 8 | 12 | 68 | 4569 | 3 | 2.0 | 2 | 11 | 1 | 1.1 | 21 |
